Assay results published in the supplement of paper PMC11208160.

Assay: recombinant UMI read abundance after kanamycin selection (control-corrected) (log10(CPM+1)); higher = more efficient recombination; extreme values may be limits of the assay; sequences stand for … in AGTGCAGAGAAAATCGGCCAGTTTTCTCTGCCTGCAGTCCGCATGCCGTGGGACCCCTTGGGTTCTAACCTGTTGCCTAGATTTATGCAGCGGACTGCCTTTCTCCCAAAGTGATAAACCGG…AGGTTGGTTTCACT; site = the 11-nt donor
How it was run: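 Pooled Escherichia coli screen of donor and donor-binding-loop pairs for the IS621 bridge recombinase. Each pair sits with a 12-nt UMI on a plasmid carrying a promoterless kanamycin gene. The library was co-electroporated with a target plasmid encoding a fixed target and T7-inducible recombinase, then plated with IPTG (0.07 mM) plus kanamycin, or unselected, each in two replicates. Recombinant UMIs were PCR-amplified across the donor–target junction and sequenced. Counts became CPM, averaged over replicates, scaled by control-derived factors and reported as log10(CPM+1).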
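Also: IS621 bridge recombinase in Escherichia coli cells against a fixed T5 target plasmid.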

Sequence | recombinant UMI read abundance (log10)
CTGCTGACATGGACCGGTTTTCCCGGTAATCCGTATTTGAT (site CTGCTGACTAT) | 2.13
CTGCTTCCATGGACCGGTTTTCCCGGTAATCCGTATTTGGT (site CTGCTTCCTAC) | 0.0707
CTGGAAACATGGACCGGTTTTCCCGGTAATCCGTATTTGAA (site CTGGAAACTTA) | 0.0938
CTGGAAACATGGACCGGTTTTCCCGGTAATCCGTATTTGAA (site CTGGAAACTTC) | 0.988
CTGGAAACATGGACCGGTTTTCCCGGTAATCCGTATTTGAA (site CTGGAAACTTG) | 0
CTGGAAACATGGACCGGTTTTCCCGGTAATCCGTATTTGAA (site CTGGAAACTTT) | 2.09
CTGGAAACATGGACCGGTTTTCCCGGTAATCCGTATTTGCA (site ATGGAAACTTG) | 0
CTGGAAACATGGACCGGTTTTCCCGGTAATCCGTATTTGCA (site CAGGAAACTTG) | 1.85
CTGGAAACATGGACCGGTTTTCCCGGTAATCCGTATTTGCA (site CCGGAAACTTG) | 1.93
CTGGAAACATGGACCGGTTTTCCCGGTAATCCGTATTTGCA (site CGGGAAACTTG) | 0
CTGGAAACATGGACCGGTTTTCCCGGTAATCCGTATTTGCA (site CTAGAAACTTG) | 2.19
CTGGAAACATGGACCGGTTTTCCCGGTAATCCGTATTTGCA (site CTCGAAACTTG) | 0
CTGGAAACATGGACCGGTTTTCCCGGTAATCCGTATTTGCA (site CTGAAAACTTG) | 0.744
CTGGAAACATGGACCGGTTTTCCCGGTAATCCGTATTTGCA (site CTGCAAACTTG) | 0
CTGGAAACATGGACCGGTTTTCCCGGTAATCCGTATTTGCA (site CTGGAAACTAG) | 0
CTGGAAACATGGACCGGTTTTCCCGGTAATCCGTATTTGCA (site CTGGAAACTCG) | 0.843
CTGGAAACATGGACCGGTTTTCCCGGTAATCCGTATTTGCA (site CTGGAAACTGG) | 0
CTGGAAACATGGACCGGTTTTCCCGGTAATCCGTATTTGCA (site CTGGAAACTTA) | 1.34
CTGGAAACATGGACCGGTTTTCCCGGTAATCCGTATTTGCA (site CTGGAAACTTC) | 0
CTGGAAACATGGACCGGTTTTCCCGGTAATCCGTATTTGCA (site CTGGAAACTTG) | 2.2
CTGGAAACATGGACCGGTTTTCCCGGTAATCCGTATTTGCA (site CTGGAAACTTT) | 2.16
CTGGAAACATGGACCGGTTTTCCCGGTAATCCGTATTTGCA (site CTGGAACCTTG) | 0.0058
CTGGAAACATGGACCGGTTTTCCCGGTAATCCGTATTTGCA (site CTGGAAGCTTG) | 1.51

Sequence | recombinant UMI read abundance (log10)
CTGGAAACATGGACCGGTTTTCCCGGTAATCCGTATTTGCA (site CTGGAATCTTG) | 1.21
CTGGAAACATGGACCGGTTTTCCCGGTAATCCGTATTTGCA (site CTGGACACTTG) | 0.00329
CTGGAAACATGGACCGGTTTTCCCGGTAATCCGTATTTGCA (site CTGGAGACTTG) | 1.43
CTGGAAACATGGACCGGTTTTCCCGGTAATCCGTATTTGCA (site CTGGATACTTG) | 0.526
CTGGAAACATGGACCGGTTTTCCCGGTAATCCGTATTTGCA (site CTGGCAACTTG) | 0.416
CTGGAAACATGGACCGGTTTTCCCGGTAATCCGTATTTGCA (site CTGGGAACTTG) | 0.596
CTGGAAACATGGACCGGTTTTCCCGGTAATCCGTATTTGCA (site CTGGTAACTTG) | 0.00624
CTGGAAACATGGACCGGTTTTCCCGGTAATCCGTATTTGCA (site CTGTAAACTTG) | 0.123
CTGGAAACATGGACCGGTTTTCCCGGTAATCCGTATTTGCA (site CTTGAAACTTG) | 0.578
CTGGAAACATGGACCGGTTTTCCCGGTAATCCGTATTTGCA (site GTGGAAACTTG) | 0.00967
CTGGAAACATGGACCGGTTTTCCCGGTAATCCGTATTTGCA (site TTGGAAACTTG) | 0
CTGGAAACATGGACCGGTTTTCCCGGTAATCCGTATTTGCC (site CTGGAAACTAG) | 0
CTGGAAACATGGACCGGTTTTCCCGGTAATCCGTATTTGCC (site CTGGAAACTCG) | 0
CTGGAAACATGGACCGGTTTTCCCGGTAATCCGTATTTGCC (site CTGGAAACTGG) | 0
CTGGAAACATGGACCGGTTTTCCCGGTAATCCGTATTTGCC (site CTGGAAACTTG) | 0.22
CTGGAAACATGGACCGGTTTTCCCGGTAATCCGTATTTGCG (site CTGGAAACTAG) | 0
CTGGAAACATGGACCGGTTTTCCCGGTAATCCGTATTTGCG (site CTGGAAACTCG) | 2.37
CTGGAAACATGGACCGGTTTTCCCGGTAATCCGTATTTGCG (site CTGGAAACTGG) | 0
CTGGAAACATGGACCGGTTTTCCCGGTAATCCGTATTTGCG (site CTGGAAACTTG) | 1.72
CTGGAAACATGGACCGGTTTTCCCGGTAATCCGTATTTGGT (site CTGGAAACTAC) | 1.92
CTGGAATCATGGACCGGTTTTCCCGGTAATCCGTATTTGCA (site CTGGAAACTTG) | 1.56
CTGGAATCATGGACCGGTTTTCCCGGTAATCCGTATTTGCA (site CTGGAACCTTG) | 0
CTGGAATCATGGACCGGTTTTCCCGGTAATCCGTATTTGCA (site CTGGAAGCTTG) | 0

Sequence | recombinant UMI read abundance (log10)
CTGGAATCATGGACCGGTTTTCCCGGTAATCCGTATTTGCA (site CTGGAATCTTG) | 2.19
CTGGCATCATGGACCGGTTTTCCCGGTAATCCGTATTTGGC (site CTGGCATCTGC) | 2.75
CTGGCGTCATGGACCGGTTTTCCCGGTAATCCGTATTTGAG (site CTGGCGTCTCT) | 0.929
CTGGGAACATGGACCGGTTTTCCCGGTAATCCGTATTTGCA (site CTGGAAACTTG) | 1.87
CTGGGAACATGGACCGGTTTTCCCGGTAATCCGTATTTGCA (site CTGGCAACTTG) | 0.789
CTGGGAACATGGACCGGTTTTCCCGGTAATCCGTATTTGCA (site CTGGGAACTTG) | 2.39
CTGGGAACATGGACCGGTTTTCCCGGTAATCCGTATTTGCA (site CTGGTAACTTG) | 0.262
CTGGGCGCATGGACCGGTTTTCCCGGTAATCCGTATTTGCA (site AATACGCCTAT) | 0.0174
CTGGTATCATGGACCGGTTTTCCCGGTAATCCGTATTTGCC (site CTAGTATCTGT) | 0
CTGGTATCATGGACCGGTTTTCCCGGTAATCCGTATTTGCC (site CTGGTATCTGG) | 0
CTGGTTACATGGACCGGTTTTCCCGGTAATCCGTATTTGGC (site CTGGTTACTGC) | 1.74
CTGTACGCATGGACCGGTTTTCCCGGTAATCCGTATTTGGT (site CTGTACGCTAC) | 1.26
CTGTAGCCATGGACCGGTTTTCCCGGTAATCCGTATTTGAT (site CTGTAGCCTAT) | 0.748
CTGTAGGCATGGACCGGTTTTCCCGGTAATCCGTATTTGGC (site ATGTAGGCTGC) | 0.626
CTGTAGGCATGGACCGGTTTTCCCGGTAATCCGTATTTGGC (site CTGTAGGCTGC) | 2.01
CTGTAGGCATGGACCGGTTTTCCCGGTAATCCGTATTTGGC (site GTGTAGGCTGC) | 0
CTGTAGGCATGGACCGGTTTTCCCGGTAATCCGTATTTGGC (site TTGTAGGCTGC) | 0
CTGTAGGCATGGACCGGTTTTCCCGGTAATCCGTATTTGGG (site CTGTAGGCTCC) | 0.27
CTGTAGTCATGGACCGGTTTTCCCGGTAATCCGTATTTGTC (site CTGTAGTCTGA) | 3.24
CTGTCGCCATGGACCGGTTTTCCCGGTAATCCGTATTTGCG (site CTGTCGCCTCG) | 0.00856
CTGTGCGCATGGACCGGTTTTCCCGGTAATCCGTATTTGAC (site TCCCTGTCTTC) | 0.0087
CTGTTACCATGGACCGGTTTTCCCGGTAATCCGTATTTGCT (site CTGATACCTAG) | 0
